Data as given in the Kinase Knowledgebase extract (Sharma et al. 2016).

Experiments:
PIK3CG (human) = PIK3CG (human) (UniProt P48736); assay: Assessment of PIK3CG Kinase Activity
PIK3CA (human) = PIK3CA (human) (UniProt P42336); assay: Assessment of PIK3CA Kinase Activity
PIK3CD (Human) = PIK3CD (Human) (UniProt O00329); assay: Assessment of PIK3CD Kinase Activity
PIK3CB (Human) = PIK3CB (Human) (UniProt P42338); assay: Assessment of PIK3CB Kinase Activity
Chain of PIK3CB (Human) (P42338 whole entry, looked up): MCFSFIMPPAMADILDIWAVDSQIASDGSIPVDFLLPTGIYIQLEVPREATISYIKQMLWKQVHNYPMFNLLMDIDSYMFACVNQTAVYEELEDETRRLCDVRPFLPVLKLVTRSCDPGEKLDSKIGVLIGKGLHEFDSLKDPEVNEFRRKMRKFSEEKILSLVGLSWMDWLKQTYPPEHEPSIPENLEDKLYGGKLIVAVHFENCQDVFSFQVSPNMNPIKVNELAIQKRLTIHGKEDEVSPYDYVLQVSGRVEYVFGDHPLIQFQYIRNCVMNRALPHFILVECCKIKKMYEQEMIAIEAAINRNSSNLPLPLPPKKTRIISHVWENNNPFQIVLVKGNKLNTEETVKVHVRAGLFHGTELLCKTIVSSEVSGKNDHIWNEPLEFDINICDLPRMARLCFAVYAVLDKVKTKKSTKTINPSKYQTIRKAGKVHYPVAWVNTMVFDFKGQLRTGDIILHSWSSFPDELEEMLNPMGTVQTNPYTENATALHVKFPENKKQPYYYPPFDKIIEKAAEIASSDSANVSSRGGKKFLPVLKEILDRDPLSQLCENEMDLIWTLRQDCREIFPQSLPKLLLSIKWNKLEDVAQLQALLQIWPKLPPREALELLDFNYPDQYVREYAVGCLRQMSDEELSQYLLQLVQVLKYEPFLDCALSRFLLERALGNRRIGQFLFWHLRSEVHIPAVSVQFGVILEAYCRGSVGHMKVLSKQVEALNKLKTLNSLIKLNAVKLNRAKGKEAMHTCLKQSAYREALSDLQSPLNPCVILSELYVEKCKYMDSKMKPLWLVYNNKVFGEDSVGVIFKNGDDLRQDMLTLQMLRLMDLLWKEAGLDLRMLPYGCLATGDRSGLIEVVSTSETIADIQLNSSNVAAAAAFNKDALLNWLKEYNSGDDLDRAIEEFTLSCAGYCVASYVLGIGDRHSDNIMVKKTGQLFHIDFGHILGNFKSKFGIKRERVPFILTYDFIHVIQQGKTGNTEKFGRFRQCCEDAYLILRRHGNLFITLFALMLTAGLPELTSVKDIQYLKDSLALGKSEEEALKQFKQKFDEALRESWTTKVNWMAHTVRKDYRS

Chain of PIK3CG (human) (P48736 whole entry, looked up): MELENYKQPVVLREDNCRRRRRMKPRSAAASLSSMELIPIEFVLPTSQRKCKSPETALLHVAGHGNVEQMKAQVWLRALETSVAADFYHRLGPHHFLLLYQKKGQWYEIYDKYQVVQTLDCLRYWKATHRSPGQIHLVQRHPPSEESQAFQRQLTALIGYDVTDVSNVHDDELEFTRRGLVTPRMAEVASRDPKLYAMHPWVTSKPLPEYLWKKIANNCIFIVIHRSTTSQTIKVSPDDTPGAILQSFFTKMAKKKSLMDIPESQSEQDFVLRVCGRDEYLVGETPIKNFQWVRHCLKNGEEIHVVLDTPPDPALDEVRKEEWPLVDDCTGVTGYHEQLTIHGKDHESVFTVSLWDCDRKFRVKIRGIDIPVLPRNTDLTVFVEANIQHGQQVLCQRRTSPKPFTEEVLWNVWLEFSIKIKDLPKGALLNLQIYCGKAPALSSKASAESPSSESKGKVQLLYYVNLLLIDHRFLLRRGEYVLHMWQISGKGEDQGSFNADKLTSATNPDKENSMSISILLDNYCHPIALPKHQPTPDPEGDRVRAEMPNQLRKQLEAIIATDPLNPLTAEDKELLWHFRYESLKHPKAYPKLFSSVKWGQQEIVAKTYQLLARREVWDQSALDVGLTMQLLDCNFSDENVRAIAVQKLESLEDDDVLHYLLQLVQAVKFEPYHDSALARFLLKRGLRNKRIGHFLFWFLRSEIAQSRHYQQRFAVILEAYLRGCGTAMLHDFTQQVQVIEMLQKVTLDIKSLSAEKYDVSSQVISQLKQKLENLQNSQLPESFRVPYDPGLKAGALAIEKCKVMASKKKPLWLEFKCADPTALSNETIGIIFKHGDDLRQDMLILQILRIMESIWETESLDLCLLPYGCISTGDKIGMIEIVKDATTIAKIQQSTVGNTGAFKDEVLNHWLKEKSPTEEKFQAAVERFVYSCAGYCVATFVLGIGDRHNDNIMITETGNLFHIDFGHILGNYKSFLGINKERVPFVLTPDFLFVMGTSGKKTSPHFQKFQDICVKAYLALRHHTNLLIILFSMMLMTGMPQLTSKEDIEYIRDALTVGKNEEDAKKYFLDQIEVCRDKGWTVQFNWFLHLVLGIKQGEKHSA
Chain of PIK3CD (Human) (O00329 whole entry, looked up): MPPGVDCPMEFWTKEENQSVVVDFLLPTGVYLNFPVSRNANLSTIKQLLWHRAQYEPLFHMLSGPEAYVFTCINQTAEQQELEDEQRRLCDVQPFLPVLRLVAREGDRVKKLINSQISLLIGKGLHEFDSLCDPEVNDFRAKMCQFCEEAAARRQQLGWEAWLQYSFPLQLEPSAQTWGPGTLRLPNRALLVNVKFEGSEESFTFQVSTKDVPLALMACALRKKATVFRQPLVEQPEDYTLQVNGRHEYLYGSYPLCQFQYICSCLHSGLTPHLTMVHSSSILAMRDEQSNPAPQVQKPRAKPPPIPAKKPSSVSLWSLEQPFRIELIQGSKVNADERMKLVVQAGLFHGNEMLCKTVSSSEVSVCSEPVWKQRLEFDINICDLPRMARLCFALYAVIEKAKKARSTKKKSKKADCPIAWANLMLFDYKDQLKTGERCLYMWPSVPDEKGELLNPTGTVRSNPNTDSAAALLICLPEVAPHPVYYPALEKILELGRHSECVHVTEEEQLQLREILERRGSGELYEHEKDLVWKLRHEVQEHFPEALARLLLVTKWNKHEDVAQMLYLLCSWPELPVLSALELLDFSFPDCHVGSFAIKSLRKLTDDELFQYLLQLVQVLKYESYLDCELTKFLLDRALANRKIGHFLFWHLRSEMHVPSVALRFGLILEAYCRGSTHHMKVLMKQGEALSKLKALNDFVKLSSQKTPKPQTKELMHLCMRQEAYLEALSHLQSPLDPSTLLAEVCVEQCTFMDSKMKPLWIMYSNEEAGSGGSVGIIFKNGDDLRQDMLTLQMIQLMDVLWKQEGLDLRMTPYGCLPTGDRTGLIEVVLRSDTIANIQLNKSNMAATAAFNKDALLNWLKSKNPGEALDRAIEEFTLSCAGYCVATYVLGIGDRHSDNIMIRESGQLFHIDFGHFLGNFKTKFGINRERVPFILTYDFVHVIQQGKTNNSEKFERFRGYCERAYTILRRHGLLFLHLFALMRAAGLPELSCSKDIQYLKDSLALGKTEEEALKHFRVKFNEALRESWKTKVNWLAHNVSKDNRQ
Chain of PIK3CA (human) (P42336 whole entry, looked up): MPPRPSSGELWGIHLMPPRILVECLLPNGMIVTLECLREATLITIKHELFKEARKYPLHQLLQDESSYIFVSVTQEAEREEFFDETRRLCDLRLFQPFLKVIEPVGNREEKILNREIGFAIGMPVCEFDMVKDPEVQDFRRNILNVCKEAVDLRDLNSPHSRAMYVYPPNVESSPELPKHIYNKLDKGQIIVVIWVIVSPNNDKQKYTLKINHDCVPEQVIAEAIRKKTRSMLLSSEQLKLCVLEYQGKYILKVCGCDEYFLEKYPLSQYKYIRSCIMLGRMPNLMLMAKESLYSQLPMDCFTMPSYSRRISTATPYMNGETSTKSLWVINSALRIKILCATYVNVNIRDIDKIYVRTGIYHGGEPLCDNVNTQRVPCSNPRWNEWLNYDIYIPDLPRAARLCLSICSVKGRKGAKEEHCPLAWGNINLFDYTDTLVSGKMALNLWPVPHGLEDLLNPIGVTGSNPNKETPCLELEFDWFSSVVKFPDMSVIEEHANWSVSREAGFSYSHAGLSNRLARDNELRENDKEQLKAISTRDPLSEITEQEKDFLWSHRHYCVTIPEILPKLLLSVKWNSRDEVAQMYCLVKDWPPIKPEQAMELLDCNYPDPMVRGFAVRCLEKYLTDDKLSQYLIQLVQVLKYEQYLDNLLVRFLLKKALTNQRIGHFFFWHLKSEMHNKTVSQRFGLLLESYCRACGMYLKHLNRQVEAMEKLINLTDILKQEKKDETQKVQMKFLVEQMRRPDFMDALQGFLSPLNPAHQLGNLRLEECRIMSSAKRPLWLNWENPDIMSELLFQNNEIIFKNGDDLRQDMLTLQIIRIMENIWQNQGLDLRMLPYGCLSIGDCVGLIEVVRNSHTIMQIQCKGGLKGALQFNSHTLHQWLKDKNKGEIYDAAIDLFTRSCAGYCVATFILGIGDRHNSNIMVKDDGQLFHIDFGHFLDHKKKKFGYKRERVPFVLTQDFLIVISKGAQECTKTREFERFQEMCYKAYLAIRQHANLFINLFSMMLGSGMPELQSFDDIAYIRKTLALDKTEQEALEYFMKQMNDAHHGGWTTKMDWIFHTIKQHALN

IC50 (PIK3CG (human)) [nM] | IC50 (PIK3CA (human)) [nM] | IC50 (PIK3CD (Human)) [nM] | IC50 (PIK3CB (Human)) [nM] | SMILES
< 100 | 100 to 1000 | < 100 |  | CC(C)(C)NS(=O)(=O)c1cncc(-c2ccc3nc(NC(=O)NCC(=O)N4CCCCC4)nn3c2)c1
< 100 |  | < 100 |  | CC(C)(C)NS(=O)(=O)c1cncc(-c2ccc3nc(NC(=O)NCCC(=O)N4CCCCC4)nn3c2)c1
< 100 |  | < 100 |  | CC(C)(C)NS(=O)(=O)c1cncc(-c2ccc3nc(NC(=O)NCC(=O)N4CCCC4)nn3c2)c1
< 100 |  | 100 to 1000 | 100 to 1000 | CC(C)(C)NS(=O)(=O)c1cncc(-c2ccc3nc(NC(=O)NCC(=O)NC4CC4)nn3c2)c1
< 100 |  | < 100 |  | CC(C)(C)NS(=O)(=O)c1cncc(-c2cc(F)c3nc(NC(=O)NCC(=O)N4CCOCC4)nn3c2)c1
< 100 | 100 to 1000 | < 100 |  | CN(C(=O)CNC(=O)Nc1nc2ccc(-c3cncc(S(=O)(=O)NC(C)(C)C)c3)cn2n1)C1CC1
< 100 |  | 100 to 1000 | 100 to 1000 | CC(C)(C)NS(=O)(=O)c1cncc(-c2ccc3nc(NC(=O)NCC(=O)NC4CCNCC4)nn3c2)c1
< 100 |  | 100 to 1000 |  | CS(=O)(=O)c1cncc(-c2ccc3nc(NC(=O)NCC(=O)N4CCOCC4)nn3c2)c1
< 100 |  |  | > 10000 | O=C(NCC(=O)N1CCCC1)Nc1nc2ccc(-c3cncc(C(F)(F)F)c3)cn2n1
< 100 | 100 to 1000 | < 100 | 100 to 1000 | CC(C)(C)NS(=O)(=O)c1cncc(-c2ccc3nc(NC(=O)NCC(=O)N4CCOCC4)nn3c2)c1
< 100 |  | < 100 | 100 to 1000 | CC(C)(C)NS(=O)(=O)c1cncc(-c2ccc3nc(NC(=O)NCCC(=O)N4CCCC4)nn3c2)c1
< 100 |  | < 100 | 100 to 1000 | CC(C)(C)NS(=O)(=O)c1cncc(-c2ccc3nc(NC(=O)NCC(=O)N4CCC(N)CC4)nn3c2)c1
< 100 | 100 to 1000 | < 100 | 100 to 1000 | CN(C)[C@H]1CCN(C(=O)CNC(=O)Nc2nc3ccc(-c4cncc(S(=O)(=O)NC(C)(C)C)c4)cn3n2)C1
< 100 | 100 to 1000 | < 100 |  | CC(C)NS(=O)(=O)c1cncc(-c2ccc3nc(NC(=O)NCC(=O)N4CCOCC4)nn3c2)c1
< 100 | 100 to 1000 | < 100 | 100 to 1000 | CN1CCN(C(=O)CNC(=O)Nc2nc3ccc(-c4cncc(S(=O)(=O)NC(C)(C)C)c4)cn3n2)CC1
< 100 |  | < 100 |  | CC(C)NS(=O)(=O)c1cncc(-c2ccc3nc(NC(=O)NCC(=O)N4CCCC4)nn3c2)c1
< 100 |  | 100 to 1000 |  | CC(C)(C)NS(=O)(=O)c1cncc(-c2cc(F)c3nc(NC(=O)NCC(=O)N4CCCC4)nn3c2)c1
< 100 | 100 to 1000 | < 100 | 100 to 1000 | COCCN1CCN(C(=O)CNC(=O)Nc2nc3ccc(-c4cncc(S(=O)(=O)NC(C)(C)C)c4)cn3n2)CC1
